Data on 3 compounds can be found in patent publication US20220280499A1, “NOVEL DRUG COMBINATIONS FOR TREATMENT OF A CARCINOMA” (Stichting Het Nederlands Kanker Instituue-Antoni van …, priority 2019, published 2022).

For test [1], the system named is SNU449 xenograft. The following applies: nude mice, lenvatinib 4 mg/kg, gefitinib 80 mg/kg, about 27 days.
The target in test [2] is FGFR2 (Homo sapiens, UniProt P21802). The following applies: cited from earlier work.
For test [3], the system named is SNU449 cells. Put plainly: EGFR shRNA knockdown with lenvatinib, proliferation. It is filed as cell-based, human. The following applies: SNU449 cells with EGFR shRNA vectors, about 10 days. The method, then:
FIG. 1. […] Cell growth was assessed by a colony formation assay. […] Viability was assessed by CellTiter-Blue assays. (c) The level of EGFR knockdown was determined by western blot for three independent shRNAs. HSP90 protein level served as a loading control.
After this, genomic DNA was isolated from both treated and untreated cells, and the relative abundance of gRNA was determined by next generation sequencing of the bar code contained in each gRNA vector in three biological replicates as described (Evers et al., 2016. Nat Biotechnol 34: 631-3).

Test [4] deals with advanced HCC. The following applies: first-line treatment of advanced HCC; cited from earlier work.
Test [5] deals with EGFR. Kind of test: western blot with phospho-protein-specific antibodies, EGFR activation. In kind it is cell-based, human. The following applies: three EGFR-high liver cancer cell lines. The protocol:
(§1) FIG. 3. […] Activation of EGFR and ERK1/2 was analyzed. HSP90 served as a control.
(Immunoblotting shows a protein as a band on a membrane.)

Test [6] deals with ERK1/2. Kind of test: western blot with phospho-protein-specific antibodies, ERK1/2 activation. In kind it is cell-based, human. The following applies: three EGFR-high liver cancer cell lines. The protocol: as §1
The target of test [7] is VEGFR family. The following applies: cited from earlier work.
Test [8] deals with advanced HCC patients. The following applies: clinical trials; cited from earlier work.

Chain of FGFR2 (P21802 22-821, species assumed): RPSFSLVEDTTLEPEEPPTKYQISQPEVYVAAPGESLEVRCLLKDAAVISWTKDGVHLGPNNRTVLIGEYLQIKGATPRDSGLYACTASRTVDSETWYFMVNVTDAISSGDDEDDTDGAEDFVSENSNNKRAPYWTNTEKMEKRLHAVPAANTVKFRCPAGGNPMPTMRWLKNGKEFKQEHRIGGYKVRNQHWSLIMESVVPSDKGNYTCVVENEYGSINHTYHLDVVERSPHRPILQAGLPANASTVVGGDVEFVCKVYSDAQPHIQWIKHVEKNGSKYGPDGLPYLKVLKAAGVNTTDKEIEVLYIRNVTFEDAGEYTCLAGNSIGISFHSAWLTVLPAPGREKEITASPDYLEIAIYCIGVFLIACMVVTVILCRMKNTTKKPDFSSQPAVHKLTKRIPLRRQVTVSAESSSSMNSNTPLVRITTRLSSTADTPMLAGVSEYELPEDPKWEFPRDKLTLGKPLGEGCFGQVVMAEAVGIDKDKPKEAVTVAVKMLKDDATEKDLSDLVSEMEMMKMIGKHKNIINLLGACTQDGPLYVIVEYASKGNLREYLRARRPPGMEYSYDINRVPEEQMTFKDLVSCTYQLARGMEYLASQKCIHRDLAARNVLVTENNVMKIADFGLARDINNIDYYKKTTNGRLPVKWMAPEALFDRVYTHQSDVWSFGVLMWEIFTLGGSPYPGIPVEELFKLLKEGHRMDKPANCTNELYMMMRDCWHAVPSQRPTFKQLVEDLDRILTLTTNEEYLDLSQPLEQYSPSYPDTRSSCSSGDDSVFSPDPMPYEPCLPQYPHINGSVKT

In the case of `COc1cc2ncnc(Nc3ccc(F)c(Cl)c3)c2cc1OCCCN1CCOCC1` [gefitinib, N-(3-chloro-4-fluorophenyl)-7-methoxy-6-(3-morpholin-4-ylpropoxy)quinazolin-4-amine], the “tumor growth / antitumor effect” value in test [1] is given as “little antitumor effect”.
For orientation: Ki means a measure of affinity in units of concentration, obtained from inhibition or displacement. Regarding `COc1cc2nccc(Oc3ccc(NC(=O)NC4CC4)c(Cl)c3)c2cc1C(N)=O` [lenvatinib, 4-[3-chloro-4-(cyclopropylcarbamoylamino)phenoxy]-7-methoxyquinoline-6-carboxamide], the Ki was 8.21 nM in test [2] and 1 nM in test [7]. Moreover, the “proliferation with suppression of EGFR (shRNA) in combination” value in test [3] was “marked inhibition of proliferation”. The overall survival in test [4] is reported as 13.6 months. Also, the “Tyr 1068 phosphorylation of EGFR (activation of the receptor)” value in test [5] is reported as “strong increase”. In test [6], the “phosphorylation (activation) of ERK1/2” value was “strong increase”. Moreover, the “tumor growth / antitumor effect” value in test [1] was “little antitumor effect”.
Consider `CNC(=O)c1cc(Oc2ccc(NC(=O)Nc3ccc(Cl)c(C(F)(F)F)c3)cc2)ccn1` [sorafenib, 4-[4-[[4-chloro-3-(trifluoromethyl)phenyl]carbamoylamino]phenoxy]-N-methylpyridine-2-carboxamide], for which, in test [4], the overall survival is listed as 12.3 months. Further, in test [8], the “improvement of survival compared to placebo” value is reported as “less than 3 months”.
